Laboratory results from patent US6872805B2 (Bristol-Myers Squibb Company, priority 2000, dated 2005).

Key:
[1] = system: HCV replicon in Huh7 cells; assay: HCV replicon cell-based assay; design: species or system HCV strain 1B; details: Hepatitis C virus, Huh-7, 96 h; HCV replicon, Huh7 cells, 4 days; activity ranges; read-out: EC50
Outline: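 Genotype 1b subgenomic replicon Huh7 cells exposed to compound 4 days at 37° C in 4% FCS, 0.5% DMSO medium. EC50 from TaqMan RT-PCR of HCV RNA, normalized to total RNA by RiboGreen; CC50 from alamar Blue fluorescence after 4 h.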

[2] = target: HCV NS3/4A protease complex (Hepatitis C virus genotype 1a, UniProt P27958, C1454S/C1711G); assay: Recombinant HCV NS3/4A protease complex FRET peptide assay (strain not stated); assay type: biochemical; details: IC50, NS3/4A protease enzyme assay, strain not stated; activity ranges
Chain of HCV NS3/4A protease complex (P27958 1027-1711, stated change not applied): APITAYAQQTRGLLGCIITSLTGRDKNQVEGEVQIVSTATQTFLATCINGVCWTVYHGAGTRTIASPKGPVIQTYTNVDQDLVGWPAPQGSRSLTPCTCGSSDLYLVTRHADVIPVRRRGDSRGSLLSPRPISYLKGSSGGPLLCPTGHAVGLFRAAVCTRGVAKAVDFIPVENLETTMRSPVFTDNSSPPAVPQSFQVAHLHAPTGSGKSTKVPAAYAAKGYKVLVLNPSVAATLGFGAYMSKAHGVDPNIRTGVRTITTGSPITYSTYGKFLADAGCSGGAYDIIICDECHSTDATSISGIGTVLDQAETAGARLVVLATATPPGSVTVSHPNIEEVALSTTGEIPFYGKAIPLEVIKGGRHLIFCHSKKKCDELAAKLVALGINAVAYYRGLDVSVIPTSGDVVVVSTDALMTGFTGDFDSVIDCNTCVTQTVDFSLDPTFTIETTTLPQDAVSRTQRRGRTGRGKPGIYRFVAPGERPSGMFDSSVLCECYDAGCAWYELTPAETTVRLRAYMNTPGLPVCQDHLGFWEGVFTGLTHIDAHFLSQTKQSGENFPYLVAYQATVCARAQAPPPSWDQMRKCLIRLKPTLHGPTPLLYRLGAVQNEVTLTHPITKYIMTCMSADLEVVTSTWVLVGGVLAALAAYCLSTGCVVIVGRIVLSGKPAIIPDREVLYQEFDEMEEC
Chain of HCV NS3/4A protease complex (P27958 1027-1711, stated change not applied): as above

Compound	EC50 [1] [µM]	IC50 [2] [µM]
C=CC1C[C@]1(NC(=O)[C@@H]1C[C@@H](Oc2cc(-c3ccccc3)nc3cc(OC)ccc23)CN1C(=O)[C@@H](NC(=O)NC(C)(C)C)C(C)(C)C)C(=O)NS(=O)(=O)C1CC1 (stereo in doubt) [Compound 19, 1-[2-(3-tert-Butylureido)-3,3-dimethylbutyryl]-4-(7-methoxy-2-phenylquinolin-4-yloxy)pyrrolidine-2-carboxylic acid (1-cyclopropanesulfonylaminocarbonyl-2-vinylcyclopropyl)amide]	< 0.05	< 0.05
COc1ccc2c(O[C@@H]3C[C@@H](C(=O)NC4(C(=O)NS(=O)(=O)C5CC5)CC4)N(C(=O)[C@@H](NC(=O)OC(C)(C)C)C(C)(C)C)C3)cc(-c3ccccc3)nc2c1 [Compound 67]	< 5	< 0.05
C=CC1C[C@]1(NC(=O)[C@@H]1C[C@@H](Oc2cc(-c3ccccc3)nc3cc(OC)ccc23)CN1C(=O)[C@@H](NC(=O)OC(C)(C)C)C(C)(C)C)C(=O)NS(=O)(=O)c1cccc([N+](=O)[O-])c1 (stereo partly shown) [Compound 53]	< 50	< 0.05
C=CC1C[C@]1(NC(=O)[C@@H]1C[C@@H](Oc2cc(-c3ccccc3)nc3cc(OC)ccc23)CN1C(=O)[C@@H](NC(=O)OC(C)(C)C)C(C)(C)C)C(=O)NS(=O)(=O)c1ccc([N+](=O)[O-])cc1 (stereo partly shown) [Compound 52]	< 0.5	< 0.5
C=C[C@@H]1C[C@]1(NC(=O)C1CC(Oc2cc(-c3ccccc3)nc3cc(OC)ccc23)CN1C(=O)[C@@H](NC(=O)OC)C(C)(C)C)C(=O)NS(=O)(=O)C1CC1 (stereo partly drawn) [Compound 113, {1S-[2S-(1R-cyclopropanesulfonylaminocarbonyl-2S-vinyl-cyclopropylcarbamoyl)-4R-(7-methoxy-2-phenyl-quinolin-4-yloxy)-pyrrolidine-1-carbonyl]-2,2-dimethyl-propyl}carbamic acid methyl ester]	< 0.05	< 0.05
C=CC1C[C@]1(NC(=O)[C@@H]1C[C@@H](Oc2cc(-c3ccccc3)nc3cc(OC)ccc23)CN1C(=O)[C@@H](NC(=O)OC(C)(C)C)C(C)(C)C)C(=O)NS(=O)(=O)C1CC1 (stereo in doubt) [Compound 10, {1-[2-(1-Cyclopropanesulfonylaminocarbonyl-2-vinylcyclopropylcarbamoyl)-4-(7-methoxy-2-phenylquinolin-4-yloxy)-pyrrolidine-1-carbonyl]-2,2-dimethylpropyl}carbamic acid tert-butyl ester]	< 0.05	< 0.05
C=C[C@@H]1C[C@]1(NC(=O)C1C[C@@H](Oc2cc(-c3ccccc3)nc3cc(OC)ccc23)CN1C(=O)[C@@H](NC(=O)CCC(=O)O)C(C)(C)C)C(=O)NS(=O)(=O)C1CC1 (stereo partly drawn) [Compound 100, N-{1S-[2S-(1R-cyclopropanesulfonylaminocarbonyl-2S-vinyl-cyclopropylcarbamoyl)-4R-(7-methoxy-2-phenyl-quinolin-4-yloxy)-pyrrolidine-1-carbonyl]-2,2-dimethyl-propyl}-succinamic acid]	< 0.5	< 0.05
C=CC1C[C@]1(NC(=O)[C@@H]1C[C@@H](Oc2cc(-c3ccccc3)nc3cc(OC)ccc23)CN1C(=O)C(NC(=O)OC(C)(C)C)C(C)(C)C)C(=O)NS(=O)(=O)c1ccc(OC)cc1 (stereo partly shown) [Compound 59]	< 0.05	< 0.05
C=CCC[C@](C)(NC(=O)[C@@H]1C[C@@H](Oc2cc(-c3ccccc3)nc3cc(OC)ccc23)CN1C(=O)C(NC(=O)OC(C)(C)C)C(C)(C)C)C(=O)NS(=O)(=O)c1ccc(C#N)cc1 (stereo partly shown) [Compound 41]	< 0.5	< 0.05
C=CC1C[C@]1(NC(=O)[C@@H]1C[C@@H](Oc2cc(-c3ccccc3)nc3cc(OC)ccc23)CN1C(=O)[C@@H](NC(=O)OC(C)(C)C)C(C)(C)C)C(=O)NS(=O)(=O)CC(C)(C)C (stereo in doubt) [Compound 14, {1-[2-[1-(2,2-Dimethylpropane-1-sulfonylaminocarbonyl)-2-vinylcyclopropylcarbamoyl]-4-(7-methoxy-2-phenylquinolin-4-yloxy)pyrrolidine-1-carbonyl]-2,2-dimethylpropyl}-carbamic acid tert-butyl ester]	< 0.5	< 0.5
COc1ccc2c(OC3C[C@@H](C(=O)NC4(C(=O)NS(=O)(=O)C5CC5)CC45CCC5)N(C(=O)[C@@H](NC(=O)OC(C)(C)C)C(C)(C)C)C3)cc(-c3ccccc3)nc2c1 (stereo partly shown) [Compound 136, {1-[2-(1-Cyclopropanesulfonylaminocarbonyl-spiro[2.3]hex-1-ylcarbamoyl)-4-(7-methoxy-2-phenyl-quinolin-4-yloxy)-pyrrolidine-1-carbonyl]-2,2-dimethyl-propyl}-carbamic acid tert-butyl ester]	< 5	< 0.5
C=C[C@@H]1C[C@]1(NC(=O)C1C[C@@H](Oc2cc(-c3ccccc3)nc3cc(OC)ccc23)CN1C(=O)[C@@H](Nc1ccncc1[N+](=O)[O-])C(C)(C)C)C(=O)NS(=O)(=O)C1CC1 (stereo partly drawn) [Compound 129, 1-[3,3-dimethyl-2S-(3-nitropyridin-4-ylamino)-butyryl]-4R-(7-methoxy-2-phenylquinolin-4-yloxy)-pyrrolidine-2S-carboxylic acid (1R-cyclopropanesulfonylaminocarbonyl-2S-vinylcyclopropyl)amide]	< 50	< 5
C=CC1C[C@]1(NC(=O)[C@@H]1C[C@@H](Oc2cc(-c3ccccc3)nc3cc(OC)ccc23)CN1C(=O)[C@@H](NC(=O)OC(C)(C)C)C(C)(C)C)C(=O)NS(=O)(=O)CCC (stereo partly shown) [Compound 26]	< 0.5	< 0.05
C=C[C@@H]1C[C@]1(NC(=O)C1C[C@@H](Oc2cc(-c3ccccc3)nc3cc(OC)ccc23)CN1C(=O)[C@@H](NC(=O)COC(C)=O)C(C)(C)C)C(=O)NS(=O)(=O)C1CC1 (stereo partly drawn) [Compound 106, acetic acid {1S-[2S-(1R-cyclopropanesulfonylaminocarbonyl-2S-vinyl-cyclopropylcarbamoyl)-4R-(7-methoxy-2-phenyl-quinolin-4-yloxy)-pyrrolidine-1-carbonyl]-2,2-dimethyl-propylcarbamoyl}-methyl ester]	< 0.5	< 0.05
C=CCC[C@](C)(NC(=O)[C@@H]1C[C@@H](Oc2cc(-c3ccccc3)nc3cc(OC)ccc23)CN1C(=O)C(NC(=O)OC(C)(C)C)C(C)(C)C)C(=O)NS(=O)(=O)c1cccc(C)c1 (stereo partly shown) [Compound 36]	< 0.5	< 0.05
C=C[C@@H]1C[C@]1(NC(=O)C1C[C@@H](Oc2cc(-c3ccccc3)nc3cc(OC)ccc23)CN1C(=O)[C@@H](NC(=O)CC(C)(C)C)C(C)(C)C)C(=O)NS(=O)(=O)C1CC1 (stereo partly drawn) [Compound 103, 1-[2S-(3,3-Dimethyl-butyrylamino)-3,3-dimethyl-butyryl]-4R-(7-methoxy-2-phenyl-quinolin-4-yloxy)-pyrrolidine-2S-carboxylic acid (1R-cyclopropanesulfonylaminocarbonyl-2S-vinyl-cyclopropyl)amide]	< 0.05	< 0.05
C=CC1C[C@]1(NC(=O)[C@@H]1C[C@@H](Oc2cc(-c3ccccc3)nc3cc(OC)ccc23)CN1C(=O)[C@@H](NC(=O)OC(C)(C)C)C(C)(C)C)C(=O)NS(=O)(=O)CC1CCC1 (stereo in doubt) [Compound 15, {1-[2-(1-Cyclobutylmethanesulfonylaminocarbonyl-2-vinylcyclopropylcarbamoyl)-4-(7-methoxy-2-phenylquinolin-4-yloxy)pyrrolidine-1-carbonyl]-2,2-dimethylpropyl}-carbamic acid tert-butyl ester]	< 5	< 0.5
C=CC1CC1(NC(=O)C1CC(Oc2cc(-c3ccccc3)nc3cc(OC)ccc23)CN1C(=O)C(NC(=O)C1C2CC1C2)C(C)(C)C)C(=O)NS(=O)(=O)C1CC1 (stereo not drawn) [Compound 105, 1-{2S-[(bicyclo[1.1.1]pentane-2-carbonyl)-amino]-3,3-dimethyl-butyryl}-4R-(7-methoxy-2-phenyl-quinolin-4-yloxy)-pyrrolidine-2S-carboxylic acid (1R-cyclopropanesulfonylaminocarbonyl-2S-vinylcyclopropyl)amide]	< 0.05	< 0.05
C=C[C@@H]1C[C@]1(NC(=O)C1C[C@@H](Oc2cc(-c3ccccc3)nc3cc(OC)ccc23)CN1C(=O)[C@@H](NC(=O)COc1ccc(OC)cc1)C(C)(C)C)C(=O)NS(=O)(=O)C1CC1 (stereo partly shown) [Compound 108]	< 0.5	< 0.05
C=C1C[C@]1(NC(=O)[C@@H]1C[C@@H](Oc2cc(-c3ccccc3)nc3cc(OC)ccc23)CN1C(=O)C(NC(=O)OC(C)(C)C)C(C)(C)C)C(=O)NS(=O)(=O)c1cc(F)ccc1C (stereo partly shown) [Compound 46]	< 0.5	< 0.05
C=CCC[C@](C)(NC(=O)[C@@H]1C[C@@H](Oc2cc(-c3ccccc3)nc3cc(OC)ccc23)CN1C(=O)C(NC(=O)OC(C)(C)C)C(C)(C)C)C(=O)NS(=O)(=O)c1cccc(C#N)c1 (stereo partly shown) [Compound 40]	< 0.5	< 0.05
C#CCOC(=O)N[C@H](C(=O)N1C[C@H](Oc2cc(-c3ccccc3)nc3cc(OC)ccc23)CC1C(=O)N[C@]1(C(=O)NS(=O)(=O)C2CC2)C[C@H]1C=C)C(C)(C)C (stereo partly drawn) [Compound 124, {1S-[2S-(1R-cyclopropanesulfonylaminocarbonyl-2S-vinyl-cyclopropylcarbamoyl)-4R-(7-methoxy-2-phenyl-quinolin-4-yloxy)-pyrrolidine-1-carbonyl]-2,2-dimethyl-propyl}-carbamic acid prop-2-ynyl ester]	< 0.05	< 0.05
C=CC1C[C@]1(NC(=O)[C@@H]1C[C@@H](Oc2cc(-c3ccccc3)nc3cc(OC)ccc23)CN1C(=O)[C@@H](NC(=O)OC(C)(C)C)C(C)(C)C)C(=O)NS(=O)(=O)c1ccccc1[N+](=O)[O-] (stereo partly shown) [Compound 51]	< 0.5	< 0.05
